Data from patent publication US6479505B1, “6-arylphenanthridines with PDE-IV inhibiting activity” (Altana Pharma AG, priority 1999, dated 2002).

system: PDE4; assay: Inhibition of PDE4 activity (method of Bauer and Schwabe, microtiter plates); assay type: biochemical; details: inhibitory concentration as −log IC50 (mol/l)
Procedure: The activity test was carried out according to the method of Bauer and Schwabe, which was adapted to microtiter plates (Naunyn-Schmiedeberg's Arch. Pharmacol. 1980, 311, 193-198). The PDE reaction takes place in the first step here. In a second step, the resulting 5′-nucleotide is cleaved by a 5′-nucloetidase of the snake venom of Crotalus atrox to the uncharged nucleoside. In the third step, the nucleoside is separated from the remaining charged substrate on ion-exchange columns. The columns are eluted directly into minivials, into which 2 ml of scintillator fluid are additionally added, for counting using 2 ml of 30 mM ammonium formate (pH 6.0).
The inhibitory values determined for the compounds according to the invention [inhibitory concentration as −log IC50 (mol/l/)] follow from the following Table A, in which the numbers of the compounds correspond to the numbers of the examples.

| Structure (SMILES) | −log IC50 |
| --- | --- |
| COc1cc2c(cc1OC)[C@@H]1CCCC[C@@H]1N=C2c1ccc2c(c1)OCCO2 [Compound 3, (−)-cis-8,9-Dimethoxy-6-(2,3-dihydrobenzo[1,4]dioxin-6-yl)-1,2,3,4,4a,10b-hexahydrophenanthridine] | 7.21 |
| COc1cc2c(cc1OC)[C@@H]1CCCC[C@@H]1N=C2c1ccc2c(c1)OCO2 [Compound 1, (−)-cis-6-Benzo[1,3]dioxol-5-yl-8,9-dimethoxy-1,2,3,4,4a,10b-hexahydrophenanthridine] | 7.28 |
| COc1cc2c(cc1OC)[C@@H]1CCCC[C@@H]1N=C2c1ccc2ncccc2c1 [Compound 2, (−)-cis-8,9-Dimethoxy-6-quinolin-6-yl-1,2,3,4,4a,10b-hexahydrophenanthridine] | 7.23 |
| COc1cc2c(cc1OC)[C@@H]1CCCC[C@@H]1N=C2c1ccc2nc(C)[nH]c2c1 [Compound 10, (−)-cis-8,9-Dimethoxy-6-(2-methyl-3H-benzimidazol-5-yl)-1,2,3,4,4a,10b-hexahydrophenanthridine] | 6.83 |
| COc1cc2c(cc1OC)[C@@H]1CCCC[C@@H]1N=C2c1ccc2[nH]nnc2c1 [Compound 4, (−)-cis-6-(1H-Benzotriazol-5-yl)-8,9-dimethoxy-1,2,3,4,4a,10b-hexahydrophenanthridine] | 7.47 |
| COc1cc2c(cc1OC)[C@@H]1CCCC[C@@H]1N=C2c1ccc2c(c1)C(=O)c1ccccc1-2.Cl [Compound 7, (+)-cis-8,9-Dimethoxy-6-(fluoren-9-on-2-yl)-1,2,3,4,4a,10b-hexahydrophenanthridine hydrochloride] | 7.85 |
| COc1cc2c(cc1OC)[C@@H]1CCCC[C@@H]1N=C2c1ccc2c(c1)C(=O)c1ccccc1C2=O [Compound 8, (−)-cis-8,9-Dimethoxy-6-(anthraquinon-2-yl)-1,2,3,4,4a,10b-hexahydrophenanthridine] | 8.00 |
| COc1cc2c(cc1OC)[C@@H]1CCCC[C@@H]1N=C2c1ccc2[nH]cnc2c1 [Compound 9, (−)-cis-6-(1H-Benzimidazol-5-yl)-8,9-dimethoxy-1,2,3,4,4a,10b-hexahydrophenanthridine] | 6.76 |
| COc1cc2c(cc1OC)[C@@H]1CCCC[C@@H]1N=C2c1ccc(OC(F)F)c2oc(C(C)C)cc12 [Compound 11, (−)-cis-6-[7-Difluoromethoxy-2-isopropylbenzofuran-4-yl]-8,9-dimethoxy-1,2,3,4,4a,10b-hexahydrophenanthridine] | 8.00 |
| COc1cc2c(cc1OC)[C@@H]1CCCC[C@@H]1N=C2c1ccc2ccccc2c1 [Compound 5, (−)-cis-8,9-Dimethoxy-6-naphthalen-2-yl-1,2,3,4,4a,10b-hexahydrophenanthridine] | 7.63 |
| COc1cc2c(cc1OC)[C@@H]1CCCC[C@@H]1N=C2c1ccc2c(c1)S(=O)(=O)c1ccccc1C2=O [Compound 6, (−)-cis-8,9-Dimethoxy-6-(10,10-dioxothioxanthen-9-on-3-yl)-1,2,3,4,4a,10b-hexahydro-phenanthridine] | 8.39 |

system: not given; assay: not given; details: not given

| melting point | Structure (SMILES) |
| --- | --- |
| 213 to 214 °C | COc1cc2c(cc1OC)[C@@H]1CCCC[C@@H]1N=C2c1ccc2[nH]nnc2c1 [Compound 4, (−)-cis-6-(1H-Benzotriazol-5-yl)-8,9-dimethoxy-1,2,3,4,4a,10b-hexahydrophenanthridine] |
| 213 to 214.5 °C | COc1cc2c(cc1OC)[C@@H]1CCCC[C@@H]1N=C2c1ccc2c(c1)C(=O)c1ccccc1C2=O [Compound 8, (−)-cis-8,9-Dimethoxy-6-(anthraquinon-2-yl)-1,2,3,4,4a,10b-hexahydrophenanthridine] |
